Measurements as given in article PMC9538944, “In vitro biotransformation assays using fish liver cells: Comparing rainbow trout and carp hepatocytes” (Frontiers in Toxicology, 2022).
“And” between values parts separate entries of the source, which are not always exact repeats. Identical values can stand only once. Like-named read-outs stand apart in the source and are kept apart here.

Key:
[1] = In vivo bioconcentration test OECD TG 305, trout; set-up: species or system Oncorhynchus mykiss; conditions: rainbow trout (Oncorhynchus mykiss); for concentration at 7 d: day 7 (uptake); for concentration at 40 d: day 40 (depuration)
Procedure: (§1) In vivo BCF values for MXC and BaP in carp and trout were determined in bioconcentration tests with both species in accordance to OECD TG 305 ([OECD, 2012]). The studies were approved by the State Agency for Nature, Environment and Consumer Protection (LANUV) North Rhine-Westphalia. The fish were exposed to a single concentration of both test items in a flow-through system for 35 days. No control groups were used. Dosing was performed by a solid-phase desorption system which was integrated in the fresh water supply allowing for a constant delivery of test concentrations to the fish chambers. The procedure of column generated concentrations was described in detail by [Schlechtriem et al. (2017)]. For the present study, two packed columns containing each 500 g Florisil® loaded with 200 mg of either MXC or BaP were used for each fish chamber. The uptake (exposure) phase of the study was followed by a 35 days depuration phase in uncontaminated water. The flow-through rate was maintained at 38.6 L/h for carp and 30.1 L/h for trout throughout the test. […] Additional 2-4 fish were sampled each, at the start and at the end of the exposure period, as well as at the end of the depuration period for lipid analysis. The total lipid content of the fish was measured individually by gravimetric analysis according to [Smedes (1999)].
(§2) Water samples (400 ml) were taken from the test chambers at least three times per week. Preparation for chemical analysis was performed by liquid-liquid extraction using n-hexane (10 ml) containing deuterated MXC (35 ng). The purified organic phase was subdivided into two equal parts and evaporated to dryness under a stream of nitrogen. One part of the residue was dissolved in 200 µL DCM for MXC analysis. The other part was mixed with 1 ml ACN: water (8:2, v/v) and subjected to BaP analysis. Whole fish samples were prepared for chemical analysis individually. After grinding the tissue with the addition of dry ice in a Thermomix™ 31 (Vorwerk), the finely powdered homogenate was lyophilized using an AdVantage freeze dryer (Ismatec). Aliquots of the dry samples (0.5 g) were spiked with deuterated internal standards (5 ng MXC-d6 and 0.2 ng BaP-d12) and extracted three times with acetone: DCM (1:1, v/v) (10 ml). The pooled extracts were then extracted with ultra-pure water (45 ml) and mixed with sodium chloride (5 g) to remove acetone and matrix. The organic phase was concentrated (0.5 ml) and dissolved in cyclohexane: DCM (1:1, v/v) (4.2 ml). This was subjected to gel permeation chromatography (GPC) (GILSON system equipped with pump 307, syringe pump 402, GX-271 liquid handler, 508 interface module, and Trilution® LC software; column i. d. 1.5 cm, material Bio-Beads S-X3, 200–400 mesh, Bio-Rad, flow rate 2 ml/min). Eluates containing MXC (26–31 min retention time) and BaP (32–38 min retention time) were evaporated to dryness and dissolved in hexane (1 ml) and toluol (50 µL), respectively. The collected MXC extracts were further concentrated by solid-phase extraction (SPE, Sep-Pak® Vac 12cc, 2 g, silica cartridges, Waters) using DCM: n-hexane (50:50, v/v) as eluent. Eluent and hexane were used to equilibrate and condition the column before sample loading and subsequent washing with DCM: n-hexane (30:70, v/v). The eluate containing MXC was dried down and reconstituted in toluol (0.5 ml).
(§3) MXC in the organic phase of samples from the in vitro incubations and in DCM extracts of water samples from the in vivo bioconcentration tests were analyzed by gas chromatography-mass spectrometry (GC-MS). The GC-MS system consisted of a HP5890 series II GC coupled to a HP5972 mass sensitive detector (Hewlett-Packard). Separations were performed on 5% phenyl polysilphenylene-siloxane capillary columns (BPX-5, 30 m length x 0.25 mm i. d, 0.25 µm df, SGE). […]

rainbow trout = test: In vivo bioconcentration test OECD TG 305, trout; set-up: species or system Oncorhynchus mykiss
Procedure: as §1, §2, §3

[2] = in vivo, Cf data, concentration measured in individual fish
[3] = in vivo, rainbow trout, read-out: Mean Cf
[4] = in vivo, rainbow trout, day 14 (uptake), read-out: Mean Cf
[5] = in vivo, rainbow trout, day 21 (uptake), read-out: Mean Cf
[6] = in vivo, rainbow trout, day 28 (uptake), read-out: Mean Cf
[7] = in vivo, rainbow trout, day 35 (end of uptake), read-out: Mean Cf
[8] = in vivo, rainbow trout, day 44 (depuration), read-out: Mean Cf
[9] = rainbow trout (Oncorhynchus mykiss), in vivo
[10] = in vivo, rainbow trout, BaP background corrected, read-out: Cf data, concentration measured in individual fish

c1ccc2c(c1)cc1ccc3cccc4ccc2c1c34 [BaP, benzo[a]pyrene]
concentration at 14 d [1, 2]: 0.079 ng/g | concentration at 21 d [1, 2]: 0.111 ng/g | concentration at 28 d [1, 2]: 0.126 ng/g | concentration at 35 d [1, 2]: 0.084 ng/g | concentration at 44 d [1, 2]: 0.004 ng/g | concentration at 7 d [1, 3]: 0.107 ng/g | concentration at 14 d [1, 4]: 0.07 ng/g | concentration at 21 d [1, 5]: 0.141 ng/g | concentration at 28 d [1, 6]: 0.121 ng/g | concentration at 35 d [1, 7]: 0.116 ng/g | concentration at 40 d [1, 3]: 0.011 ng/g | concentration at 44 d [1, 8]: 0.003 ng/g | concentration at 21 d ([1]; whole fish, other: exposure via water in a flow-through system, rainbow trout, day 21 (uptake), BaP background corrected, read-out: Cf data, concentration measured in individual fish): 0.107 ng/g | Cf,SS concentration in fish at steady-state (rainbow trout; [9]): 0.126 µg/kg | kB, in vivo estimate Trout (rainbow trout; [9]): 0.40 day⁻¹ | kB, in vivo estimate, range of 95% probability (rainbow trout; [9]): 0.13 to 1.2 day⁻¹ | kT depuration rate constant (rainbow trout; [9]): 0.427 day⁻¹ | kTG growth corrected depuration rate constant (rainbow trout; [9]): 0.401 day⁻¹ | BCFSSL lipid-normalized steady-state bioconcentration factor (rainbow trout; rainbow trout (Oncorhynchus mykiss), in vivo, 35 d): 42.8 L/kg | Cf data, concentration measured in individual fish (rainbow trout; rainbow trout (Oncorhynchus mykiss), in vivo, 44 d): 0.002 µg/kg

COc1ccc(C(c2ccc(OC)cc2)C(Cl)(Cl)Cl)cc1 [MXC, methoxychlor]
concentration at 7 d [1, 10]: 25.9 ng/g | concentration at 7 d [1, 3]: 23 ng/g | concentration at 14 d ([1]; in vivo, rainbow trout, day 14 (uptake), BaP background corrected, read-out: Cf data, concentration measured in individual fish): 27.1 ng/g | concentration at 14 d [1, 4]: 21.1 ng/g | concentration at 21 d ([1]; in vivo, rainbow trout, day 21 (uptake), BaP background corrected, read-out: Cf data, concentration measured in individual fish): 28 ng/g | concentration at 21 d [1, 5]: 21.5 ng/g | concentration at 28 d ([1]; in vivo, rainbow trout, day 28 (uptake), BaP background corrected, read-out: Cf data, concentration measured in individual fish): 53.2 ng/g | concentration at 28 d [1, 6]: 41.9 ng/g | concentration at 35 d [1, 7]: 46.4 ng/g | concentration at 40 d [1, 10]: 9.62 ng/g | concentration at 40 d [1, 3]: 13.8 ng/g | concentration at 44 d [1, 8]: 6.06 ng/g | concentration at 56 d ([1]; in vivo, rainbow trout, day 56 (depuration), outlier excluded, read-out: Mean Cf): 1.75 ng/g | concentration at 70 d ([1]; in vivo, rainbow trout, day 70 (end of depuration), read-out: Mean Cf): 1.01 ng/g | BCFSS (rainbow trout; Rainbow trout - high BCFSS): 3854 L/kg | Cf,SS concentration in fish at steady-state (rainbow trout; Rainbow trout - high BCFSS): 44.1 µg/kg | kTG growth corrected depuration rate constant (rainbow trout; Rainbow trout - high BCFSS): 0.201 day⁻¹ | kT depuration rate constant (rainbow trout; Rainbow trout - high BCFSS (kT-high, day 56-70 values excluded)): 0.227 day⁻¹ | BCFSSL lipid-normalized steady-state bioconcentration factor (rainbow trout; Rainbow trout - high BCFSS, 5% lipid content): 2122 L/kg | Cf,SS concentration in fish at steady-state (rainbow trout; rainbow trout): 30.76 µg/kg | kT depuration rate constant (rainbow trout; rainbow trout): 0.150 day⁻¹ | kTG growth corrected depuration rate constant (rainbow trout; rainbow trout): 0.124 day⁻¹ | BCFSSL lipid-normalized steady-state bioconcentration factor (rainbow trout; rainbow trout, 5% lipid content): 1479 L/kg | Cf data, concentration measured in individual fish (rainbow trout; rainbow trout, day 7 (uptake), BaP background corrected): 30.0 µg/kg and 18.7 µg/kg and 17.4 µg/kg | Cf data, concentration measured in individual fish (rainbow trout; rainbow trout, day 14 (uptake), BaP background corrected): 18.1 µg/kg and 25.4 µg/kg and 13.7 µg/kg | Cf data, concentration measured in individual fish (rainbow trout; rainbow trout, day 21 (uptake), BaP background corrected): 23.9 µg/kg and 14.5 µg/kg and 19.4 µg/kg | Cf data, concentration measured in individual fish (rainbow trout; rainbow trout, day 28 (uptake), BaP background corrected): 50.1 µg/kg and 34.5 µg/kg and 29.6 µg/kg | Cf data, concentration measured in individual fish (rainbow trout; rainbow trout, day 35 (end of uptake), BaP background corrected): 50.9 µg/kg and 49.5 µg/kg and 23.5 µg/kg and 61.7 µg/kg | Cf data, concentration measured in individual fish (rainbow trout; rainbow trout, day 40 (depuration), BaP background corrected): 15.9 µg/kg and 15.8 µg/kg | Cf data, concentration measured in individual fish (rainbow trout; rainbow trout, day 44 (depuration), BaP background corrected): 2.19 µg/kg and 7.53 µg/kg and 8.23 µg/kg and 6.28 µg/kg | Cf data, concentration measured in individual fish (rainbow trout; rainbow trout, day 56 (depuration), 5.42 identified as outlier and excluded): 5.42 µg/kg and 2.06 µg/kg and 2.23 µg/kg and 0.969 µg/kg | Cf data, concentration measured in individual fish (rainbow trout; rainbow trout, day 70 (end of depuration)): 2.46 µg/kg and 0.320 µg/kg and 0.237 µg/kg
